Calls of active or inactive are those of the source. The calls are words filed in the database; no cut-off is given here.
Tests used:
H9c2 [1] = assay: Cytoprotective activity against OGD-induced myocardial ischemic injury in rat H9c2 cells assessed as cell viability at 50 uM preincubated for 12 hrs followed by exposure to OGD condition for 3 hrs by CCK8 assay (reference value: 49.23 to 50.05 %); assay type: functional; conditions: time 15 hrs, read-out: Activity
H9c2 [2] = assay: Cytoprotective activity against OGD-induced myocardial ischemic injury in rat H9c2 cells assessed as cell viability at 5 uM preincubated for 12 hrs followed by exposure to OGD condition for 3 hrs by CCK8 assay (reference value: 49.23 to 50.05 %); assay type: functional; conditions: time 15 hrs, read-out: Activity
Mus musculus [3] = assay: Inhibition of cardiomyocyte hypertrophy in ISO-induced heart failure C57BL/6J mouse at 20 mg/kg/day, po for 14 days; assay type: functional, organism-based; conditions: time 14.0 day
H9c2 [4] = assay: Cytoprotective activity against OGD-induced myocardial ischemic injury in rat H9c2 cells assessed as decrease in ROS level at 5 to 50 uM preincubated for 12 hrs followed by exposure to OGD condition for 3 hrs by DCFH-DA probe based analysis; assay type: functional, cell-based; conditions: dose 5-50 µM, time 15.0 hrs
H9c2 [5] = assay: Cytoprotective activity against OGD-induced myocardial ischemic injury in rat H9c2 cells assessed as decrease in LDH level at 5 to 50 uM preincubated for 12 hrs followed by exposure to OGD condition for 3 hrs by UV absorption analysis; assay type: functional, cell-based; conditions: dose 5-50 µM, time 15.0 hrs
Mus musculus [6] = assay: Cardioprotective activity in ISO-induced heart failure C57BL/6J mouse assessed as […] in ejection fraction in heart at 20 mg/kg/day, po for 14 days by echocardiography; assay type: functional, organism-based; conditions: time 14.0 day
Mus musculus [7] = assay: Cardioprotective activity in ISO-induced heart failure C57BL/6J mouse assessed as […] in fractional shortening in heart at 20 mg/kg/day, po for 14 days by echocardiography; assay type: functional, organism-based; conditions: time 14.0 day
Cardiac muscle cell [8] = assay: Cytoprotective activity against OGD-induced myocardial ischemic injury in neonatal rat primary cardiomyocytes assessed as decrease in cellular damage preincubated for 12 hrs followed by exposure to OGD condition for 3 hrs; assay type: functional, cell-based; conditions: time 15.0 hrs
[9] = Metabolic stability in mouse liver microsomes assessed as intrinsic clearance measured for 5 to 60 mins in presence of NADPH by LC-MS/MS analysis; assay type: ADME, Microsome; conditions: time 5-60 min, read-out: CLH
[10] = Metabolic stability in mouse liver microsomes assessed as half life measured for 5 to 60 mins in presence of NADPH by LC-MS/MS analysis; assay type: ADME, Microsome; conditions: time 5-60 min
[11] = Metabolic stability in human liver microsomes assessed as intrinsic clearance measured for 5 to 60 mins in presence of NADPH by LC-MS/MS analysis; assay type: ADME, Microsome; conditions: time 5-60 min, read-out: CLH
Mus musculus [12] = assay: Cardioprotective activity in ISO-induced heart failure C57BL/6J mouse assessed as fractional shortening in heart at 5 mg/kg/day, po for 14 days by echocardiography (reference value: 24.49 +/- 1.49 %); assay type: functional; conditions: time 14 day
Mus musculus [13] = assay: Cardioprotective activity in ISO-induced heart failure C57BL/6J mouse assessed as ejection fraction in heart at 5 mg/kg/day, po for 14 days by echocardiography (reference value: 49.55 +/- 2.41 %); assay type: functional; conditions: time 14 day
Mus musculus [14] = assay: Inhibition of cardiac fibrosis in ISO-induced heart failure C57BL/6J mouse at 5 to 20 mg/kg/day, po for 14 days; assay type: functional, organism-based; conditions: dose 5-20 mg/kg/day, time 14.0 day
Mus musculus [15] = assay: Cardioprotective activity in ISO-induced heart failure C57BL/6J mouse assessed as ejection fraction in heart at 20 mg/kg/day, po for 14 days by echocardiography (reference value: 49.55 +/- 2.41 %); assay type: functional; conditions: time 14 day
Mus musculus [16] = assay: Improvement in motor ability in ISO-induced heart failure C57BL/6J mouse assessed as increase in time of remote motion with rotarod at 5 to 20 mg/kg/day, po for 14 days; assay type: functional, organism-based; conditions: dose 5-20 mg/kg/day, time 14.0 day
Mus musculus [17] = assay: Inhibition of cardiomyocyte hypertrophy in ISO-induced heart failure C57BL/6J mouse at 5 to 20 mg/kg/day, po for 14 days; assay type: functional, organism-based; conditions: dose 5-20 mg/kg/day, time 14.0 day
Mus musculus [18] = assay: Cardioprotective activity in ISO-induced heart failure C57BL/6J mouse assessed as fractional shortening in heart at 20 mg/kg/day, po for 14 days by echocardiography (reference value: 24.49 +/- 1.49 %); assay type: functional; conditions: time 14 day
Mus musculus [19] = assay: Improvement in motor ability in ISO-induced heart failure C57BL/6J mouse assessed as increase in grip strength at 5 to 20 mg/kg/day, po for 14 days; assay type: functional, organism-based; conditions: dose 5-20 mg/kg/day, time 14.0 day
H9c2 [20] = assay: Cytoprotective activity against OGD-induced myocardial ischemic injury in rat H9c2 cells assessed as decrease in cell death at 5 to 50 uM preincubated for 12 hrs followed by exposure to OGD condition for 3 hrs by crystal violet staining based analysis; assay type: functional; conditions: dose 5-50 µM, time 15.0 hrs
Cardiac muscle cell [21] = assay: Cytoprotective activity against OGD-induced myocardial ischemic injury in neonatal rat primary cardiomyocytes assessed as decrease in cellular damage at 1 uM preincubated for 12 hrs followed by exposure to OGD condition for 3 hrs; assay type: functional, cell-based; conditions: time 15.0 hrs
H9c2 [22] = assay: Cytoprotective activity against OGD-induced myocardial ischemic injury in rat H9c2 cells assessed as cell viability at 100 uM preincubated for 12 hrs followed by exposure to OGD condition for 3 hrs by CCK8 assay (reference value: 49.23 to 50.05 %); assay type: functional; conditions: time 15 hrs, read-out: Activity

| Compound | viability at 50 µM (H9c2 [1]) | viability at 5 µM (H9c2 [2]) | other results |
| --- | --- | --- | --- |
| OC[C@H]1O[C@@H](O[C@@H]2OC=C[C@H]3[C@H](O)[C@@H]4O[C@]4(COc4ccc5ccoc5c4)[C@@H]23)[C@H](O)[C@@H](O)[C@@H]1O | 57% | 56.7% | – |
| OC[C@H]1O[C@@H](O[C@@H]2OC=C[C@H]3[C@H](O)[C@@H]4O[C@]4(CO)[C@@H]23)[C@H](O)[C@@H](O)[C@@H]1O [CATALPOL] | 50.7% | 50.6% | inhibition (Mus musculus [3]): Active; Activity (H9c2 [4]): Active; Activity (H9c2 [5]): Active; Activity (Mus musculus [6]): Active; Activity (Mus musculus [7]): Active; Activity (Cardiac muscle cell [8]): Active |
| O=C(NC[C@]12O[C@H]1[C@@H](O)[C@@H]1C=CO[C@@H](O[C@@H]3O[C@H](CO)[C@@H](O)[C@H](O)[C@H]3O)[C@@H]12)c1cccnc1 | 59.6% | 58.2% | – |
| COc1ccc(CC(=O)NC[C@]23O[C@H]2[C@@H](O)[C@@H]2C=CO[C@@H](O[C@@H]4O[C@H](CO)[C@@H](O)[C@H](O)[C@H]4O)[C@@H]23)cc1OC | 59.4% | 60.9% | – |
| OC[C@H]1O[C@@H](O[C@@H]2OC=C[C@H]3[C@H](O)[C@@H]4O[C@]4(COc4ccc(F)cc4)[C@@H]23)[C@H](O)[C@@H](O)[C@@H]1O | 64.6% | 61.7% | – |
| O=C(NC[C@]12O[C@H]1[C@@H](O)[C@@H]1C=CO[C@@H](O[C@@H]3O[C@H](CO)[C@@H](O)[C@H](O)[C@H]3O)[C@@H]12)c1cncnc1 | 57.5% | 58% | – |
| OC[C@H]1O[C@@H](O[C@@H]2OC=C[C@H]3[C@H](O)[C@@H]4O[C@]4(COc4ccc5c(c4)OCO5)[C@@H]23)[C@H](O)[C@@H](O)[C@@H]1O | 60.7% | 59.6% | – |
| O=C(O)Cc1ccccc1Nc1c(Cl)cccc1Cl [DICLOFENAC] | – | – | CLint scaled [9]: 82.9 mL/min/kg; half-life [10]: 1.1 h; CLint scaled [11]: 202 mL/min/kg |
| O=C(NC[C@]12O[C@H]1[C@@H](O)[C@@H]1C=CO[C@@H](O[C@@H]3O[C@H](CO)[C@@H](O)[C@H](O)[C@H]3O)[C@@H]12)c1ccncc1 | 57.5% | 54.2% | – |
| OC[C@H]1O[C@@H](O[C@@H]2OC=C[C@H]3[C@H](O)[C@@H]4O[C@]4(COc4ccc(-c5ccccc5)cc4)[C@@H]23)[C@H](O)[C@@H](O)[C@@H]1O | 53.2% | 60% | – |
| COc1cc(OC[C@]23O[C@H]2[C@@H](O)[C@@H]2C=CO[C@@H](O[C@@H]4O[C@H](CO)[C@@H](O)[C@H](O)[C@H]4O)[C@@H]23)cc(OC)c1OC | 55.1% | 63.9% | – |
| O=C(NC[C@]12O[C@H]1[C@@H](O)[C@@H]1C=CO[C@@H](O[C@@H]3O[C@H](CO)[C@@H](O)[C@H](O)[C@H]3O)[C@@H]12)c1ccc2occc2c1 | 58% | 59.1% | – |
| O=C(/C=C/c1ccccc1)NC[C@]12O[C@H]1[C@@H](O)[C@@H]1C=CO[C@@H](O[C@@H]3O[C@H](CO)[C@@H](O)[C@H](O)[C@H]3O)[C@@H]12 | 61.5% | 57.9% | – |
| OC[C@H]1O[C@@H](O[C@@H]2OC=C[C@H]3[C@H](O)[C@@H]4O[C@]4(COc4cc(C(F)(F)F)cc(C(F)(F)F)c4)[C@@H]23)[C@H](O)[C@@H](O)[C@@H]1O | 50.1% | 56.1% | – |
| COc1ccc(/C=C/C(=O)NC[C@]23O[C@H]2[C@@H](O)[C@@H]2C=CO[C@@H](O[C@@H]4O[C@H](CO)[C@@H](O)[C@H](O)[C@H]4O)[C@@H]23)cc1OC | 56.7% | 56.6% | – |
| CC(C)(C)c1ccc(C(=O)NC[C@]23O[C@H]2[C@@H](O)[C@@H]2C=CO[C@@H](O[C@@H]4O[C@H](CO)[C@@H](O)[C@H](O)[C@H]4O)[C@@H]23)cc1 | 70.9% | 60.7% | Activity (Mus musculus [12]): 28.23%; Activity (Mus musculus [13]): 55.41%; inhibition (Mus musculus [14]): Active; Activity (Mus musculus [15]): 53.73%; Activity (Mus musculus [16]): Active; inhibition (Mus musculus [17]): inactive; Activity (H9c2 [4]): Active; Activity (Mus musculus [18]): 27.5%; Activity (Mus musculus [19]): Active; Activity (H9c2 [20]): Active; Exhibited Superior Protective Efficacy Than Catal-Pol; Activity (H9c2 [5]): Active; Activity (Cardiac muscle cell [21]): Active |
| OC[C@H]1O[C@@H](O[C@@H]2OC=C[C@H]3[C@H](O)[C@@H]4O[C@]4(COc4ccc(C5CCCCC5)cc4)[C@@H]23)[C@H](O)[C@@H](O)[C@@H]1O | 56.6% | 60.9% | – |
| COc1ccc(OC[C@]23O[C@H]2[C@@H](O)[C@@H]2C=CO[C@@H](O[C@@H]4O[C@H](CO)[C@@H](O)[C@H](O)[C@H]4O)[C@@H]23)cc1 | 57.5% | 62.5% | – |
| OC[C@H]1O[C@@H](O[C@@H]2OC=C[C@H]3[C@H](O)[C@@H]4O[C@]4(COc4cccc5ccccc45)[C@@H]23)[C@H](O)[C@@H](O)[C@@H]1O | 58.8% | 55.5% | – |
| O=C(NCCO[N+](=O)[O-])c1cccnc1 [NICORANDIL] | – | – | viability at 100 µM (H9c2 [22]): 58.6% |
| OC[C@H]1O[C@@H](O[C@@H]2OC=C[C@H]3[C@H](O)[C@@H]4O[C@]4(COc4ccccc4)[C@@H]23)[C@H](O)[C@@H](O)[C@@H]1O | 60.5% | 59.1% | – |
| COc1ccc(C(=O)NC[C@]23O[C@H]2[C@@H](O)[C@@H]2C=CO[C@@H](O[C@@H]4O[C@H](CO)[C@@H](O)[C@H](O)[C@H]4O)[C@@H]23)cc1OC | 57.8% | 62.1% | – |
| O=C(NC[C@]12O[C@H]1[C@@H](O)[C@@H]1C=CO[C@@H](O[C@@H]3O[C@H](CO)[C@@H](O)[C@H](O)[C@H]3O)[C@@H]12)c1ccccc1 | 70% | 63.6% | Activity (H9c2 [20]): Active; Exhibited Superior Protective Efficacy Than Catal-Pol; Activity (Cardiac muscle cell [21]): Active |
| OC[C@H]1O[C@@H](O[C@@H]2OC=C[C@H]3[C@H](O)[C@@H]4O[C@]4(COc4ccc(C5CCCC5)cc4)[C@@H]23)[C@H](O)[C@@H](O)[C@@H]1O | 60.8% | 64.5% | – |
| OC[C@H]1O[C@@H](O[C@@H]2OC=C[C@H]3[C@H](O)[C@@H]4O[C@]4(COc4cccc5c4CCCC5)[C@@H]23)[C@H](O)[C@@H](O)[C@@H]1O | 55.5% | 54.4% | – |
| O=C(NC[C@]12O[C@H]1[C@@H](O)[C@@H]1C=CO[C@@H](O[C@@H]3O[C@H](CO)[C@@H](O)[C@H](O)[C@H]3O)[C@@H]12)c1cccs1 | 60.4% | 54.1% | – |
| O=C(NC[C@]12O[C@H]1[C@@H](O)[C@@H]1C=CO[C@@H](O[C@@H]3O[C@H](CO)[C@@H](O)[C@H](O)[C@H]3O)[C@@H]12)C1CCCCC1 | 61.3% | 60% | – |
| O=C(NC[C@]12O[C@H]1[C@@H](O)[C@@H]1C=CO[C@@H](O[C@@H]3O[C@H](CO)[C@@H](O)[C@H](O)[C@H]3O)[C@@H]12)c1ccco1 | 55.6% | 58.8% | – |
